SMILES strings stand for the structures.

One data set deals with rat isolated bladder. As to the kind of experiment: Test Example 3: effect on electrical field stimulation-induced contraction in rat isolated bladder. Conditions: 10 μM test substance; AUC of contraction, value before treatment = 100%; SD female rat bladder. The protocol:
Test Example 3: Effect on Electrical Field Stimulation-Induced Contraction in Rat Isolated Bladder
As an effect on the nerve stimulation-dependent bladder contraction in in vitro, the effect of the Example compounds of the present invention in the electrical field stimulation-induced contraction of the rat isolated bladder was measured by the following method. That is, a bladder specimen having a width of about 2 mm and a length of about 10 mm in the longitudinal direction from the bladder isolated from a Sprague-Dawley (SD) female rat (Japan SLC, Inc.) was prepared. The prepared bladder specimen was suspended in an organ bath filled with 10 mL of a Krebs-Henseleite solution. The Krebs-Henseleite solution was aerated at 95% 02 and 5% CO2, and kept at 37° C. After carrying out stabilization at an initial tension of 1 g, the contraction was caused twice with 60 mM KCl. After stabilization of the specimen with a Krebs-Henseleite solution, the contraction was caused by carrying out electrical field stimulation at 20 V with an electrical stimulation device (Nihon Kohden) (a stimulation frequency of 8 Hz, a pulse width of 0.3 msec, and a stimulation time of 10 seconds). By repeating the transmural electrical stimulation at an interval of 2 minutes, a voltage was adjusted to obtain a contraction height of approximately 50% of the contractile response at 20 V. After the contraction by electrical field stimulation had been stabilized, 10 μL of the test substances dissolved in 100% dimethyl sulfoxide in advance (final concentrations of 3 μM, 10 μM, and 30 μM) was added thereto. The test substances were cumulatively administered at the following concentrations after the low-concentration contractile response had been stabilized. The response was taken into a personal computer through a PowerLab (registered trademark) (AD Instruments, Inc.), and analyzed by LabChart (registered trademark) (AD Instruments, Inc.). When the area under the response (area under curve, AUC) in each contraction response was calculated and the value before treatment with the test substance was taken as 100%, the enhancement rate (% of pre) of the isolated bladder contractions after treatment with the test substance was calculated.

The target in data set [1] is human muscarinic M3 receptor (Homo sapiens, UniProt P20309).
Sequence of human muscarinic M3 receptor (P20309 whole entry): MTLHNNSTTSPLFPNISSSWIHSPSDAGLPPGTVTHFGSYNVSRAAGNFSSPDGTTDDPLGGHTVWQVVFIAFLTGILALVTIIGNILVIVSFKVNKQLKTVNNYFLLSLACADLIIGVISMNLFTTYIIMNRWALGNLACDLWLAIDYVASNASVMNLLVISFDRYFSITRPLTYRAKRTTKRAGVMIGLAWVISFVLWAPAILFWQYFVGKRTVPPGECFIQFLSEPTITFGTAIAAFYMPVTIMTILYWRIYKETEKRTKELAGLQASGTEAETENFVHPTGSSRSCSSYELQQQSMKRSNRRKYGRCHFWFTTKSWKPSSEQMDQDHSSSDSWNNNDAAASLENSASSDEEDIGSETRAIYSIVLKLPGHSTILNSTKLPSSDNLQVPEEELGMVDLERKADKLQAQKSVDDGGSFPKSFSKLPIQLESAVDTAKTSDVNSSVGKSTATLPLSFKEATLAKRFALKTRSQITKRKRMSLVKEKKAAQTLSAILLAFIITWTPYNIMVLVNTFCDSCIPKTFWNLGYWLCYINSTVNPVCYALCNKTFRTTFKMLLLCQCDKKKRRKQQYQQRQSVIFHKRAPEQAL
Data set [2] concerns the target T1, human c-Mpl-introduced Ba/F3 cell (Homo sapiens, UniProt P40238).
T1 construct: expressed in transfected cells
T1 sequence (P40238 26-635): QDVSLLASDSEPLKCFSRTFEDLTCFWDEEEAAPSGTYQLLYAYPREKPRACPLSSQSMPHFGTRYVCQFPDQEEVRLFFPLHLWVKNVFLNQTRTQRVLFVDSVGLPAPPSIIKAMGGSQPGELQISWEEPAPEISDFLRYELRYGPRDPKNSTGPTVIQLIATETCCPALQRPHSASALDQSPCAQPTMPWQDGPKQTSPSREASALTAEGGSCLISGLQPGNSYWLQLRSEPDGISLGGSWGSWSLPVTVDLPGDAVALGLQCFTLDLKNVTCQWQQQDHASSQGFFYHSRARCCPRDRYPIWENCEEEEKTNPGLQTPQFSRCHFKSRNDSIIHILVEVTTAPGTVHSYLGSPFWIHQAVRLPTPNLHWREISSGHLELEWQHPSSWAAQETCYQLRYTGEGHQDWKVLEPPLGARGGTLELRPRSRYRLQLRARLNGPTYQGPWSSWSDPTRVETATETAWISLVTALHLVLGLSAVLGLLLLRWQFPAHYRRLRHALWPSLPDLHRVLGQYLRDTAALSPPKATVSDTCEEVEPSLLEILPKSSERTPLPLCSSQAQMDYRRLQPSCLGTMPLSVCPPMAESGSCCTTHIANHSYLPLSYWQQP
Put plainly: Test Example 2: human c-Mpl-introduced Ba/F3 cell proliferative activity. It is filed as cell-based. Particulars: concentration exhibiting 30% proliferation; 100% = positive control (Example 315 of Patent Document 1) at 1 μM. The procedure, abridged: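 Ba/F3 cells stably expressing human c-Mpl seeded at 1×10^4 cells/well with test substance (100 nM to 10 μM final) in RPMI-1640/10% FBS, overnight at 37 °C. Cell number by WST-type kit absorbance at 450 nm after ~5 h; proliferation % relative to untreated (0%) and reference agonist at 1 μM (100%).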

Consider `C[C@@H]1CCCN1Cc1sc(NC(=O)c2cnc(N3CCN(CCC(=O)O)CC3)cn2)nc1-c1cc(F)cc(C(F)(F)F)c1` [Example 49], for which, in the data set on rat isolated bladder, the “Enhancement rate (% of pre) of isolated bladder contractions” value is recorded as 153 % of pre. Moreover, in data set [1], the “muscarinic M3 receptor-positive allosteric modulator activity, 1 μM (-fold shift)” value is 67 -fold shift and the “muscarinic M3 receptor-positive allosteric modulator activity, 10 μM (-fold shift)” value is reported as 224 -fold shift. Further, the “human c-Mpl-introduced Ba/F3 cell proliferative activity EC30” value in data set [2] is greater than 10 µM.

With `Cc1cc(OC(F)(F)F)cc(-c2nc(NC(=O)c3cnc(N4CCN(CCC(=O)O)CC4)cn3)sc2CN2CCC[C@H]2C)c1` [Example 46], the “Enhancement rate (% of pre) of isolated bladder contractions” value with rat isolated bladder was 132 % of pre. Moreover, in data set [1], the “muscarinic M3 receptor-positive allosteric modulator activity, 1 μM (-fold shift)” value is given as 29 -fold shift and the “muscarinic M3 receptor-positive allosteric modulator activity, 10 μM (-fold shift)” value is 199 -fold shift. The “human c-Mpl-introduced Ba/F3 cell proliferative activity EC30” value in data set [2] is greater than 10 µM.

With `CC[C@@H]1CCCN1Cc1sc(NC(=O)c2cnc(N3CCN(CCC(=O)O)CC3)cn2)nc1-c1cccc(C(F)(F)F)c1` [Example 65], the “Enhancement rate (% of pre) of isolated bladder contractions” value in the data set on rat isolated bladder is 127 % of pre. In data set [1], the “muscarinic M3 receptor-positive allosteric modulator activity, 1 μM (-fold shift)” value is reported as 24 -fold shift and the “muscarinic M3 receptor-positive allosteric modulator activity, 10 μM (-fold shift)” value was 90 -fold shift. Also, the “human c-Mpl-introduced Ba/F3 cell proliferative activity EC30” value in data set [2] is greater than 10 µM.

`C[C@@H]1CCCN1Cc1sc(NC(=O)c2cnc(N3CCN(CCC(=O)O)C[C@H]3C)cn2)nc1-c1cc(F)cc(C(F)(F)F)c1` [Example 140]: in the data set with rat isolated bladder, the “Enhancement rate (% of pre) of isolated bladder contractions” value is listed as 161 % of pre. Also, in data set [1], the “muscarinic M3 receptor-positive allosteric modulator activity, 1 μM (-fold shift)” value is 28 -fold shift and the “muscarinic M3 receptor-positive allosteric modulator activity, 10 μM (-fold shift)” value is 158 -fold shift. Further, the “human c-Mpl-introduced Ba/F3 cell proliferative activity EC30” value in data set [2] is greater than 10 µM.

Regarding `C[C@@H]1CCCN1Cc1sc(NC(=O)c2cnc(N3CCN(CCC(=O)O)CC3)cn2)nc1-c1cc(Cl)cs1` [Example 50], the “Enhancement rate (% of pre) of isolated bladder contractions” value in the data set on rat isolated bladder is given as 183 % of pre. Besides, in data set [1], the “muscarinic M3 receptor-positive allosteric modulator activity, 1 μM (-fold shift)” value is listed as 108 -fold shift and the “muscarinic M3 receptor-positive allosteric modulator activity, 10 μM (-fold shift)” value is 190 -fold shift. In addition, the “human c-Mpl-introduced Ba/F3 cell proliferative activity EC30” value in data set [2] was found to be 2.3 µM.

Values taken from patent publication US9951060B2, “2-acylaminothiazole derivative or salt thereof” (ASTELLAS PHARMA INC., priority 2014, dated 2018).
